From patent publication US8524861B2, “Treatment of bacterial infections” (priority 2004, dated 2013)
pIC50: −log10 of the molar value. Where no end group is shown, it is not given here.

What was measured:
bacteria = conditions: Peptides, 21: 327-330 (2000); cited from earlier work
[1] = system: Staphylococcus aureus (ATCC strain 6538P); type: cell-based; conditions: for Activity against Staphylococcus, in particular S. aureus, in words: summary in description; for pIC50: ATCC strain 6538P
Experimental: (§1) Bacterial Stocks—ATCC derived stock bacteria were obtained from Oxoid Limited. Pseudomonas aeruginosa (ATCC strain 9027) or Staphylococcus aureus (ATCC strain 6538P) were obtained in ‘Cultiloop’ format. Stocks were prepared by inoculating 20 ml of LB broth with a single Cultiloop, and incubating overnight at 37° C. Cells present after overnight incubation were harvested by removing larger aggregates by centrifugation (3000 g, 10 minutes), and withdrawing 16 ml of the supernatant, which was likely to contain mainly planktonic bacteria. To this, 4 ml of sterile glycerol was added (the latter having been sterilised by autoclaving). The resultant suspension was divided between 15× 1 ml cryovials before freezing at −85° C.
(§2) Preliminary experiments were carried out to estimate the amount to dilute bacterial stocks which when on addition of 25 μl of diluted stock to 100 μl of fresh LB broth would result in bacteria in log phase growth after overnight incubation at 37° C.
(§3) The peptides were examined for antibacterial efficacy against Staphylococcus aureus. To test the efficacy of peptides, dilutions of test peptides or PBS (for use as a control) were prepared in LB broth, and 100 μl aliquots of these placed in 96-well plates. A vial of planktonic bacterial stock was thawed in a 37° C. incubator and diluted to the level previously determined which would produce log phase growth after overnight incubation (see above). 25 μl of this bacterial dilution was then added to the test wells (some wells containing LB broth without peptide were left without any bacterial inoculation, these being used as a blank). After overnight growth, the concentration of bacteria in individual wells was assessed by measuring absorbance at 620 nm, in a microplate spectrophotometer. The average absorbance of wells for specific concentrations of peptides was calculated, and from this the percentage inhibition (relative to untreated wells) was also calculated and plotted against concentration (along with an estimate of error on that % inhibition).
(§4) The inventor constructed an expanded library of peptides derived from either apolipoprotein B or apolipoprotein E in order to further evaluate polypeptides in accordance with the invention. Further experiments were then conducted to investigate the antibacterial activity of this peptide library against the bacteria P. aeroginosa, S. aureus and S. pneumoniae. The methods used to determine the IC50 values for each peptide were as described in the Example 1.

[2] = system: Staphylococcus aureus, Pseudomonas aeruginosa, and Streptococcus pneumoniae; test: Antibacterial activity, overall statements over the test bacteria; type: cell-based
Text: The inventors conducted exhaustive experiments to assess the antibacterial activity of peptides from apolipoproteins and derivatives thereof. Peptides and derivatives from ApoE and ApoB were a particular focus. […] Example 1 illustrates the efficacy of the polypeptides according to the invention compared to apoE141-149 and apoB3359-3367 (i.e. non-tandem repeats) and other peptides derived from apolipoproteins.
The activity of polypeptides in accordance with the invention can be seen in Tables 5, 6, 7 and 8.
as §3, §4

Streptococcus pneumoniae = type: cell-based
Experimental: as §3, with “inhibition). […] The inventor constructed an expanded library of peptides derived from either apolipoprotein B or apolipoprotein E in order to further evaluate polypeptides in accordance with the invention. Further experiments were then conducted to investigate the antibacterial activity of this peptide library against the bacteria P. aeroginosa, S. aureus and S. pneumoniae. The methods used to determine the IC50 values for each peptide were as described in the Example 1.” for “inhibition).”

[3] = system: Saccharomyces cerevisiae yeast cells (strain GenT01); test: Gentronix GreenScreen GC yeast genotoxicity assay; type: cell-based; conditions: concentrations up to and including 100 μM, FIGS. 6A-6C
Experimental: A liquid handling robot is used to produce a serial dilution series of each test compound in a 96-well, black microplate with an optically clear base. […] In addition, a series of genotoxic and cytotoxic standards and non-toxic controls are run to provide internal quality control. The plates are covered with a breathable membrane and incubated overnight, without shaking, at 25° C.
After incubation, the microplates are uncovered and data collected using a Tecan Ultra 384 microplate reader. This instrument provides measurements of light absorbance and fluorescence in microplates; a standard fluorescein filter set (excitation 485/25 and emission 535/25) is used. Absorbance is read at 620 nm and is proportional to cell proliferation (which is lowered by toxic analytes). Fluorescence is proportional to the activity of the DNA repair system (increased by genotoxic analytes). The yeast cultures used are a genetically modified strain that express a green fluorescent protein whenever the cells carry out DNA damage repair. Fluorescence is normalised to the absorbance signal to correct for variation in cell yield caused by any cytolytic activity of the test compounds against the yeast cells. This produces a “fluorescence per cell” measurement termed “brightness”. In addition to the Gentronix Assay yeast strain (GenT01), a control Saccharomyces cerevisiae strain (GenC01) is also used, which is identical except for its ability to produce green fluorescent protein is disabled. This strain is used to provide a control to allow correction for substances which may be either autofluorescent themselves or which induce an autofluorescence in the yeast cells. The data collected is simply transferred into a Excel template where result evaluation sheets are automatically produced. The sheets contain the processed results in both a graphical and tabulated format, with automatic assessment of the result, i.e. positive or negative, and calculation of the lowest effective concentration (LEC), for both genotoxicity and cytotoxicity. […]

[4] = system: Pseudomonas aeruginosa (ATCC strain 9027); type: cell-based; conditions: for pIC50: ATCC strain 9027; for Effectiveness against Pseudomonadales, in particular P. aeruginosa, in words: summary in description
Experimental: as §1, §2, §3
Peptides in accordance with the invention were also examined for antibacterial efficacy against Pseudomonas aeruginosa using the same technique as described above to calculate the IC50 values.
Points were obtained by dividing the average for six treated wells by the average for six untreated wells, and bars show an estimate of the error for these calculated values.
as §4

| Substance | Antibacterial activity reported by Azuma et al., in words (bacteria) | Activity against Staphylococcus, in particular S. aureus, in words [1] | Antibacterial activity, in words, bacterium not specified [2] | pIC50 (Streptococcus pneumoniae) | Genotoxic response in test yeast strain (GenT01) [3] | pIC50 [4] | Effectiveness against Pseudomonadales, in particular P. aeruginosa, in words [4] | pIC50 [1] |
| --- | --- | --- | --- | --- | --- | --- | --- | --- |
| LRVRLASHLRKLRKRLLRDADDLQKRLAVY [apoE133-162, 30-mer monomeric peptide of Azuma et al] | comparable with that of the antibiotic gentamicin |  |  |  |  |  |  |  |
| WRKWRKRWWWRKWRKRWW-NH2 (C-terminus assumed) [MU_4] |  | particularly active | particularly effective |  |  |  |  |  |
| Ac-WRWRKRWRKWRWRKRWRK-NH2 [MU_27] |  |  |  | 4.34 | failed to produce any genotoxic response |  |  |  |
| Ac-LRKLRKRLRKLRKR-NH2 (N-terminus and C-terminus assumed) [GIN 08] |  |  |  | < 4.28 |  | 5.04 | particularly effective |  |
| RWRKRWRKRWRKRWRK-NH2 (C-terminus assumed) [MU_37] |  |  | particularly effective |  |  | 4.64 |  | 4.46 |
| WRKWRKRWWRKWRKRWW-NH2 (C-terminus assumed) [MU_58] |  | particularly active | particularly effective |  |  | 5.12 |  | 5.10 |
| WRKWRKRWWRWRKWRKRWWR-NH2 (C-terminus assumed) [MU_83] |  |  | particularly effective |  |  | 4.82 |  | 5.05 |
| Ac-LRKLRKRLLLRKLRKRWW-NH2 (N-terminus and C-terminus assumed) [MU_112] |  |  | particularly effective |  |  | 5.15 |  | 5.15 |
| Ac-LRKLRKRLLRLRKLRKRLLR-NH2 (N-terminus and C-terminus assumed) [MU_82] |  |  | particularly effective |  |  |  | particularly effective | 4.89 |
| LLRKRLKRLLLRKRLKRL-NH2 (C-terminus assumed) [MU_24] |  |  | particularly effective |  |  | 5.15 |  | 4.47 |
| WRKWRKRWRKWRKRW-NH2 (C-terminus assumed) [MU_59] |  |  | particularly effective |  |  | 5.12 |  | 4.96 |
| RKRGWKWRKRGWKW-NH2 (C-terminus assumed) [MU_73] |  |  | particularly effective |  |  | 4.37 |  | 4.66 |
| LRWRKRWRKLRWRKRWRK-NH2 (C-terminus assumed) [MU_35] |  |  |  | 4.28 |  | 4.64 |  | 4.51 |
| HRWRKRWRKHRWRKRWRK-NH2 (C-terminus assumed) [MU_36] |  |  |  | < 4.28 |  | < 4.28 |  | 4.40 |
| RRWRKRWRKRRWRKRWRK-NH2 (C-terminus assumed) [MU_33] |  |  |  | 4.28 |  | < 4.28 |  | 4.42 |
| Ac-WRKWRKRWWLRKLRKRLL-NH2 [GIN 34] |  |  | particularly effective |  | failed to produce any genotoxic response | 5.52 | particularly effective | 5.15 |
| RRKRRKRRRRRKRRKRRR-NH2 (C-terminus assumed) [MU_16] |  |  |  | < 4.28 |  | < 4.28 |  |  |
| WRKWRKRWWFRKWRKRWW-NH2 (C-terminus assumed) [MU_60] |  | particularly active | particularly effective |  |  | 4.90 |  | 5.22 |
| KRWRKRWRKWRWRKRWRK-NH2 (C-terminus assumed) [MU_29] |  |  |  | 4.28 |  | 5.12 |  | 4.64 |
| FRKFRKRFFFRKFRKRFF-NH2 (C-terminus assumed) [MU_7] |  |  | particularly effective |  |  | 5.22 |  | 4.96 |
| LRWRKRWRKWRWRKRWRK-NH2 (C-terminus assumed) [MU_30] |  |  | particularly effective | 4.42 |  | 4.82 |  | 4.82 |
| RWRKRWRKWRWRKRWRK-NH2 (C-terminus assumed) [MU_32] |  |  | particularly effective | 4.34 |  | 4.92 |  | 4.82 |
| LRKLRKRLL-NH2 (C-terminus assumed) [MU_46] |  |  |  | < 4.28 |  | 4.66 |  |  |
| HRWRKRWRKWRWRKRWRK-NH2 (C-terminus assumed) [MU_31] |  |  |  | 4.38 |  | 4.92 |  | 4.77 |
| RRWRKRWRKWRWRKRWRK-NH2 (C-terminus assumed) [MU_28] |  |  | particularly effective | 4.34 |  | 4.94 |  | 4.82 |
| WRKWRKRFFWRKWRKRFF-NH2 (C-terminus assumed) [MU_61] |  | particularly active | particularly effective |  |  | 5.52 | particularly effective | 5.30 |
| Ac-WRKLRKRLLLRKLRKRLL-NH2 (N-terminus and C-terminus assumed) [MU_115] |  |  | particularly effective |  |  | 5.52 | particularly effective | 5.05 |
